Earlier results in US6858233B2, “Simmondsin processing methods and products” (International Flora Technologies, Ltd., priority 2001, dated 2005).

Tests used:
animals = settings: reported in the literature
rats = settings: relative to simmondsin, Cokelaere et al. 1996

| Molecule | ability to cause food intake reduction (animals) | efficacy compared to simmondsin (food intake reduction) (rats) |
| --- | --- | --- |
| CO[C@H]1[C@@H](OC)C[C@@H](O[C@@H]2O[C@H](CO)[C@@H](O)[C@H](O)[C@H]2O)/C(=C\C#N)[C@@H]1O [simmondsin] | significant food intake reduction | – |
| simmondsin ferulate | significant food intake reduction | about 67% |
| N#C/C=C1\[C@H](O[C@@H]2O[C@H](CO)[C@@H](O)[C@H](O)[C@H]2O)C[C@H](O)[C@H](O)[C@H]1O [didemethyl simmondsin] | thought not to have such efficacy | – |
